Experimental data as given in patent publication US6930104B2, “Heterocyclic derivatives” (Takeda Chemical Industries, Ltd., priority 2001, dated 2005).

Tests used:
PC12h cells = test: Inhibitory effects on glutamate-induced cell death (LDH activity of living cells); type: cell-based, rat; details: concentration of 1 μM, 72 hours
Experimental: (§1) PC12h cells, a subspecies of rat-derived pheochromocytoma PC12 cells, were provided by the late Professor Hiroshi Hatanaka (Osaka University, Japan). Dulbecco's modified Eagle's medium (DMEM), phosphate buffered saline (PBS), HEPES (N-2-hydroxyethylpiperazine-N′-2-ethanesulfonic acid) buffer (pH 7.4), horse serum (HS) and a penicillin (5000 U/ml)/streptomycin (5 mg/ml) mixture were purchased from Gibco BRL. Fetal calf serum (FCS) was purchased from Bioscience PTY. Transferrin, insulin and progesterone were purchased from Sigma. The flasks used for culture were manufactured by Falcon, and the collagen-coated 96-well and 6-well multiwell plates used for assay were manufactured by Iwaki Glass Co., Ltd. (Japan). An LDH assay kit (LDH cytotoxic test Wako) and an anti-βAPP antibody 22C11 were purchased from Wako Pure Chemical Industries, Ltd. (Japan) and Chemicon, respectively. All other chemicals used were commercially available and of reagent grade.
PC12h cells were seeded in 96-well plates at a density of 2×10^4 cells/cm^2. […] After 72 hours, living cells were counted. Cell counts were determined as follows: after removal of the culture medium, living cells were solubilized in 0.1% Tween 20-containing PBS and assayed for LDH activity. The results were expressed as % of control, whose LDH activity was set to 100.

[1] = tested on: sAPP secretion in PC12h cells; test: Stimulatory effects on sAPP secretion (Western blotting of culture supernatant); type: cell-based, rat; details: 5 hours after addition; for increase in sAPP production compared to the control group: averaged from triplicate wells
Experimental: as §1
PC12h cells were grown in DMEM culture medium supplemented with 10% FCS, 5% HS and penicillin/streptomycin, and then released by pipetting. The cells were seeded in collagen-coated 6-well plates at a confluency of 50% to 70% and allowed to stand for 1 day. On the following day, the wells were washed once with 10 mM HEPES/DMEM (1 ml) and then filled with 10 mM HEPES/DMEM culture medium (0.5 ml), followed by addition of Example No. 5 or 32. After 5 hours, the culture supernatant was collected from each well. Trichloroacetic acid (final concentration: 15%) was added to the culture supernatant to precipitate proteins, which were then concentrated. After addition of SDS-PAGE sample buffer (Daiichi Pure Chemicals Co., Ltd., Japan), each sample was boiled for 5 minutes, subjected to SDS-PAGE (10/20% gel, ATTO) and then transferred to a PVDF membrane (Bio-Rad Laboratories) at 2 mA/cm^2 for 60 minutes. […] An ECL Plus (Amersham) was used for detection and the signals were digitized by an LAS-1000 plus (Fuji film, Japan), followed by quantification with NIH-image software.

SMILES: COc1ccc(C(=O)N2c3ccccc3C(N3CCCc4ccccc43)CC2C)cc1OC (single isomer, unassigned; (-)) [Example 5, (−)-2,4-cis-1-(3,4-Dimethoxybenzoyl)-2-methyl-4-(1,2,3,4-tetrahydroquinolin-1-yl)-1,2,3,4-tetrahydroquinoline]
- inhibition of cell death induced by addition of 1 mM glutamic acid (PC12h cells): completely inhibited
- increase in sAPP production compared to the control group ([1]; 10 nM concentration): approximately 2.0 fold
- sAPP level in the culture medium as compared to the control group ([1]; Western blotting with anti-βAPP antibody 22C11): concentration-dependent increase

SMILES: COc1ccc(C(=O)N2c3ccccc3C(n3c4ccccc4c4ccccc43)CC2C)cc1OC (stereo not drawn) [Example 32, 2,4-cis-4-(9H-9-Carbazolyl)-1-(3,4-dimethoxybenzoyl)-2-methyl-1,2,3,4-tetrahydroquinoline]
- increase in sAPP production compared to the control group ([1]; 1 nM concentration): approximately 2.2 fold

SMILES: CCOC(=O)CCCCC1CC(n2c3ccccc3c3ccccc32)c2ccccc2N1C(=O)c1ccc(OC)cc1 (stereo not shown) [Example 157, Ethyl 5-[4-(9H-9-carbazolyl)-1-(4-methoxybenzoyl)-1,2,3,4-tetrahydro-2-quinolinyl]pentanoate]
- melting point: 167 to 168 °C

SMILES: COc1ccc(C(=O)N2c3ccccc3C(N3CCCc4c(Cl)cccc43)=CC2C)cc1OC (stereo not shown) [Example 160, 4-(5-Chloro-1,2,3,4-tetrahydroquinolin-1-yl)-1-(3,4-dimethoxybenzoyl)-2-methyl-1,2-dihydroquinoline]
- melting point: 162 to 163 °C

SMILES: COc1ccc(C(=O)N2c3ccccc3C(n3c4ccccc4c4ccccc43)=CC2C)cc1OC (stereo not shown) [Example 161, 4-(9H-9-Carbazolyl)-1-(3,4-dimethoxybenzoyl)-2-methyl-1,2-dihydroquinoline]
- melting point: 184 to 185 °C
